In patent publication EP4613273A1, “TREATMENT OF BONE LOSS” (priority 2024, dated 2025):
Structures can show the parent of a compound that is named as a salt. Where two headings read alike, the source gives them in different places.

Legend:
[1] = human healthy volunteers, cited from earlier work; for MIV-701/MIV06404 ratio: single oral administration
CTX-1 = test: Plasma CTX-1 in client-owned dogs with alveolar bone loss induced by spontaneously developed periodontal disease; format: in vivo
Procedure: (§1) The present study was performed on 10 Beagle dogs suffering from alveolar bone loss induced by spontaneously developed periodontal disease. All dogs were treated with MIV-701 besylate salt for minimum 30 day and maximum 90 days, depending on the tolerance at intermediate visits. The product is administrated to the dog by its owner at home, once a day with a meal.
(§2) There were two treatment groups: • Group A (5 dogs) with a dose of 25 mg/kg. • Group B (5 dogs) with a dose of 50 mg/kg.
Administration protocol and dosage: MIV-701 besylate salt was administrated to dog once-a-day, at home with a standard meal. It was allowed to administrate the capsule(s) with a small amount of wet food/favorite snack. Opening of the capsule and spilling the product over the food was forbidden.
Treatment was administrated for 90 days. Every 30 days, based on the results of clinical exam, blood parameters and potential occurrence of adverse events suspected to be drug-related, the treatment prolongation for another 30 days, or discontinuation of treatment was decided by the Investigator.
Whole blood sample for CTX-1 analysis was collected at visit V2 (Day 0), visit V3 (Day 30+3 days), Visit V4 (Day 60t 3 days) and Visit V5 (Day 90t 3 days).
Each time, the blood sample was collected after overnight fasting, between 08:00 and 10:00 in the morning. As far as possible the blood sample was taken at the same time each visit. The night before the visit, the Investigational Product was administrated to the dog at 21:00.
The result from visit V2 (Day 0) was used as a baseline value for the efficacy evaluation criteria.
Each time 2 ml of the peripheral whole blood was collected on an anti-coagulant tube (K2EDTA) and gently inverted several times. Next, sample was centrifuged at 1500 G for 10 minutes at room temperature. The obtained plasma was divided into two Eppendorf tubes labelled as "Aliquot 1" and "Aliquot 2". Minimum 0.5 ml was placed in "Aliquot 1" while the rest of plasma was placed in "Aliquot 2". All obtained aliquots were immediately stored at - 20°C on site.
The CTX-1 analysis was performed at the end of the study by Central Laboratory. The shipment of aliquots from site to Central Laboratory was organized by the Monitor and divided into two, separated in time shipments. One with all "Aliquot 1" samples and second one with all "Aliquot 2" samples. The CTX-1 SAMPLE SHIPMENT FORM was joined to the shipment.

[2] = MIV-701/MIV-06404 plasma exposure ratio in cat; format: in vivo; details: for MIV-701/MIV-06404 exposure ratio: D13 (repeated); for MIV-701/MIV-06404 ratio: single oral administration (D0), exposure ratio
Procedure: (§3) MIV-701 besylate salt was administered once daily for 14 days to 4 healthy cats at three increasing doses: 2 mg/kg, 10 mg/kg and 50 mg/kg.
(§4) Each treatment period can be resumed as follows: • J0 (T+24h): first administration, withdrawal of blood samples for pharmacokinetic and plasma CTX-1 assessment (pre-dose and 0.5h, 1h, 2h, 4h, 8h and 24h after first drug administration), pre-dose blood samples for hematology and clinical biochemistry (baseline values for safety assessment). • J5 ([…]) and J8: pre-dose blood samples. • J13: last administration, withdrawal of plasma samples for pharmacokinetic and plasma CTX-1 assessment (pre-dose and 0.5h, 1h, 2h, 4h, 8h and 24h after last drug administration), pre-dose sampling for hematology and clinical biochemistry (baseline values for safety assessment). • J15 to J≥19: washout period.
After centrifugation of blood samples plasma aliquots were stored at -20°C._After thawing on ice, 30 µL of plasma were transferred into 1.5 ml microtube containing 270 µL acetonitrile. Microtubes were then vigorously stirred and then centrifuged (12000 rpm, 10 min, 4°C) and the supernatant was transferred in Matrix tube for LC-MS/MS analysis.
Equipment: LC-MS/MS Acquity I Class-Wevo TQD (Waters®): - Acquity I Class ∘ Column: Waters® Acquity BEH C8, 50*2.1mm, 1.7 µm (40°C) ∘ Mobile phase: • ▪ A: Ammonium Formate 5mM, pH=3.8 • ▪ B: Ammonimuformate 5 mM in CH3CN 5% aqueous, pH=3.8 ∘ Injection volume: 1 µL ∘ Speed: 600 µL/min ∘ Gradient: […]
- Xevo TQD • ∘ Source temperature: 150°C • ∘ Desolvatation temperature: 600°C • ∘ Cone gaz speed: 50L/h • ∘ Desolvatation gaz speed: 1200L/h - Analytes MS characteristics

[3] = tested on: dogs with alveolar bone loss induced by spontaneously developed periodontal disease; test: Periodontal parameter assessment (CAL, PPD, bleeding) in dogs with periodontal disease; format: in vivo; details: CTX-1 responders; Day-90 vs Day-0
Procedure: as §1, §2
The examination was performed at visit V2 (Day 0) and visit V5 (90t 3 days).
At visit V2 (Day 0) and V5 (90 ± 3 days). the Investigator evaluated the following parameters for each tooth: • Periodontal probing depth (PPD) - measured as the distance from the gingival margin to the bottom of the pocket using a graduated periodontal probe of Investigator's choice. The sulcus/pocket was measured circumferentially around the whole tooth and valued of 3 to 6 places, depending on the tooth localization (Figure 11). Measurements was done in millimeters (mm) and rounded to the nearest lower value. The mean PPD value of these measurements per tooth was calculated. • Clinical attachment loss (CAL) - measured as the distance from the cemento-enamel-junction to the bottom of the pocket using a periodontal probe of the Investigator choice. CAL was measured in 3 to 6 sites per tooth depending on the tooth localization (Figure 11). Measurements was done in millimeters (mm) and rounded to the nearest lower value (Kortegaard et al. 2014). The mean CAL value of these measurements per tooth will be calculated. • Bleeding Probing Index - assessed at each site of PPD and CAL measurement. Depending on the absence or presence of bleeding within 10 second following probing of the tooth, BPI scored either as 0 or 1 respectively. The mean BIP value was calculated per tooth.
At visit V5 (90t 3 days), the Investigator assessed PPD, CAL and BoP in only 3 selected teeth for the study and recorded it in PERIODONTAL PARAMETERS FORM.

[4] = Safety of repeated oral administration in healthy cats; format: in vivo
Procedure: as §3
The three doses were consecutively administered for 14 days with a >5-day washout period between two dose levels.
as §4

In the case of `CC(C)C[C@H](NC(=O)c1ccc(-c2csc(N3CCN(C)CC3)n2)cc1)C(=O)N1C[C@H](F)[C@H]2OCC(O)(O)[C@H]21` [MIV-701 besylate salt, N-[(S)-1-((3aS,6S,6aS)-6-Fluoro-S-oxo-hexahydro-furo[3,2-b]pyrrole-4-carbony)-3-methyl-butyl]-4-[2-(4-methyl-piperazin-1-yl)-thiazol-4-yl]-benzamide benzenesulphonate], the MIV-701/MIV-06404 exposure ratio ([1]; single administrations, dose not stated) is given as 0.03, the MIV-701/MIV06404 ratio ([1]; 25 mg) is given as 0.01 and the MIV-701/MIV06404 ratio ([1]; 75 mg) is given as 0.02. For the same molecule, the MIV-701/MIV06404 ratio ([1]; 150 mg) was 0.03, the MIV-701/MIV06404 ratio ([1]; 300 mg) was 0.04 and the “patients with reduction in plasma CTX-1” value (CTX-1; 10 dogs, Day-90) was “all but one patient experienced reduction”. For the same molecule, the “mean % change in CTX-1” value (CTX-1; CTX-1-responders (n=9), Day-90 vs Day-0) was -67%±6%, the “reduction of plasma CTX-1 vs baseline (Day-0)” value (CTX-1; dogs with periodontal disease, 25 and 50 mg/kg/day oral, Day-30 and Day-60, no significant difference between groups) was “comparable reduction” and the “reduction of plasma CTX-1 vs pre-treatment baseline” value (CTX-1; dogs with periodontal disease, Day-90 at 50 mg/kg/day, N=10) was “highly significant reduction”. It also gave an MIV-701/MIV-06404 exposure ratio ([2]; 2 mg/kg) of 5.0, an MIV-701/MIV-06404 exposure ratio ([2]; 10 mg/kg) of 3.4 and an MIV-701/MIV-06404 ratio ([2]; 2 mg/kg) of 6.9. For the same molecule, the MIV-701/MIV-06404 ratio ([2]; 10 mg/kg) was 6.2, the MIV-701/MIV-06404 ratio ([2]; 50 mg/kg) was 3.9 and the “Clinical Attachment Loss (CAL)” value [3] was “significantly improved”. For the same molecule, the “Gingival Bleeding Index (GBI)” value [3] was “not modified”, the “Periodontal Probing Depth (PPD)” value [3] was “significantly improved” and the “adverse or irreversible effect” value ([4]; oral 2 mg/kg/day and 10 mg/kg/day during 14 days) was “did not induce any adverse or irreversible effect”. The adverse signs ([4]; oral 50 mg/kg/day during 4 days, led to treatment withdrawal, reversible) was “induced some digestive and behavioral degradations”.
